Experiments:
AURKA = molecular target: T1, AURKA (Homo sapiens, UniProt O14965); assay: KinomeScan; format: binding; details: 1uM
T1 construct: purchased DiscoveRx KINOMEscan

ERK3 = molecular target: T2, ERK3 (Homo sapiens, UniProt Q16659); assay: KinomeScan; format: binding; details: 1uM
T2 construct: purchased DiscoveRx KINOMEscan

PAK7 = molecular target: T3, PAK7 (Homo sapiens, UniProt Q9P286); assay: KinomeScan; format: binding; details: 1uM
T3 construct: purchased DiscoveRx KINOMEscan

EGFR(L858R,T790M) = molecular target: T4, EGFR(L858R,T790M) (Homo sapiens, UniProt P00533, L858R/T790M); assay: KinomeScan; format: binding; details: 1uM
T4 construct: purchased DiscoveRx KINOMEscan

[1] = molecular target: T5, ABL1(T315I)-phosphorylated (Homo sapiens, UniProt P00519, T315I); assay: KinomeScan; format: binding; details: 1uM
T5 construct: purchased DiscoveRx KINOMEscan

TAOK1 = molecular target: T6, TAOK1 (Homo sapiens, UniProt Q7L7X3); assay: KinomeScan; format: binding; details: 1uM
T6 construct: purchased DiscoveRx KINOMEscan

PRKD1 = molecular target: T7, PRKD1 (Homo sapiens, UniProt Q15139); assay: KinomeScan; format: binding; details: 1uM
T7 construct: purchased DiscoveRx KINOMEscan

[2] = molecular target: T8, JAK3(JH1domain-catalytic) (Homo sapiens, UniProt P52333); assay: KinomeScan; format: binding; details: 1uM
T8 construct: JAK3(JH1domain-catalytic); purchased DiscoveRx KINOMEscan

BLK = molecular target: T9, BLK (Homo sapiens, UniProt P51451); assay: KinomeScan; format: binding; details: 1uM
T9 construct: purchased DiscoveRx KINOMEscan

PKN1 = molecular target: T10, PKN1 (Homo sapiens, UniProt Q16512); assay: KinomeScan; format: binding; details: 1uM
T10 construct: purchased DiscoveRx KINOMEscan

S6K1 = molecular target: T11, S6K1 (Homo sapiens, UniProt P23443); assay: KinomeScan; format: binding; details: 1uM
T11 construct: purchased DiscoveRx KINOMEscan

EPHB6 = molecular target: T12, EPHB6 (Homo sapiens, UniProt O15197); assay: KinomeScan; format: binding; details: 1uM
T12 construct: purchased DiscoveRx KINOMEscan

PKN2 = molecular target: T13, PKN2 (Homo sapiens, UniProt Q16513); assay: KinomeScan; format: binding; details: 1uM
T13 construct: purchased DiscoveRx KINOMEscan

PIK3C2B = molecular target: T14, PIK3C2B (Homo sapiens, UniProt O00750); assay: ADP-glo biochemical assay
T14 construct: purchased Invitrogen
Experimental: (§1) The reaction in each tube was started immediately by adding ATP and kept going for an hour under 37°C. After the tube cooled for 5 minutes at room temperature, 5 μL solvent reactions were carried out in a 384-well plate. Then 5 μL of ADP-Glo™ reagent was added into each well to stop the reaction and consume the remaining ADP within 40 minutes. At the end, 10 μL of kinase detection reagent was added into the well and incubated for 30 minutes to produce a luminescence signal. Luminescence signal was measured with an automated plate reader (Perkin-Elmer Envision) and each measurement was performed in triplicate.

SRMS = molecular target: T15, SRMS (Homo sapiens, UniProt Q9H3Y6); assay: KinomeScan; format: binding; details: 1uM
T15 construct: purchased DiscoveRx KINOMEscan

HIPK1 = molecular target: T16, HIPK1 (Homo sapiens, UniProt Q86Z02); assay: KinomeScan; format: binding; details: 1uM
T16 construct: purchased DiscoveRx KINOMEscan

MAP4K4 = molecular target: T17, MAP4K4 (Homo sapiens, UniProt O95819); assay: KinomeScan; format: binding; details: 1uM
T17 construct: purchased DiscoveRx KINOMEscan

[3] = molecular target: T18, ABL1(F317L)-phosphorylated (Homo sapiens, UniProt P00519, F317L); assay: KinomeScan; format: binding; details: 1uM
T18 construct: purchased DiscoveRx KINOMEscan

DLK = molecular target: T19, DLK (Homo sapiens, UniProt Q12852); assay: KinomeScan; format: binding; details: 1uM
T19 construct: purchased DiscoveRx KINOMEscan

MELK = molecular target: T20, MELK (Homo sapiens, UniProt Q14680); assay: KinomeScan; format: binding; details: 1uM
T20 construct: purchased DiscoveRx KINOMEscan

EGFR(G719S) = molecular target: T21, EGFR(G719S) (Homo sapiens, UniProt P00533, G719S); assay: KinomeScan; format: binding; details: 1uM
T21 construct: purchased DiscoveRx KINOMEscan

DRAK2 = molecular target: T22, DRAK2 (Homo sapiens, UniProt O94768); assay: KinomeScan; format: binding; details: 1uM
T22 construct: purchased DiscoveRx KINOMEscan

EPHA6 = molecular target: T23, EPHA6 (Homo sapiens, UniProt Q9UF33); assay: KinomeScan; format: binding; details: 1uM
T23 construct: purchased DiscoveRx KINOMEscan

p38-gamma = molecular target: T24, p38-gamma (Homo sapiens, UniProt P53778); assay: KinomeScan; format: binding; details: 1uM
T24 construct: purchased DiscoveRx KINOMEscan

EPHA7 = molecular target: T25, EPHA7 (Homo sapiens, UniProt Q15375); assay: KinomeScan; format: binding; details: 1uM
T25 construct: purchased DiscoveRx KINOMEscan

SGK3 = molecular target: T26, SGK3 (Homo sapiens, UniProt Q96BR1); assay: KinomeScan; format: binding; details: 1uM
T26 construct: purchased DiscoveRx KINOMEscan

CSNK1D = molecular target: T27, CSNK1D (Homo sapiens, UniProt P48730); assay: KinomeScan; format: binding; details: 1uM
T27 construct: purchased DiscoveRx KINOMEscan

[4] = molecular target: T28, ABL1(H396P)-nonphosphorylated (Homo sapiens, UniProt P00519, H396P); assay: KinomeScan; format: binding; details: 1uM
T28 construct: purchased DiscoveRx KINOMEscan

IRAK1 = molecular target: T29, IRAK1 (Homo sapiens, UniProt P51617); assay: KinomeScan; format: binding; details: 1uM
T29 construct: purchased DiscoveRx KINOMEscan

[5] = molecular target: T30, ABL1(Q252H)-phosphorylated (Homo sapiens, UniProt P00519, Q252H); assay: KinomeScan; format: binding; details: 1uM
T30 construct: purchased DiscoveRx KINOMEscan

EPHA3 = molecular target: T31, EPHA3 (Homo sapiens, UniProt P29320); assay: KinomeScan; format: binding; details: 1uM
T31 construct: purchased DiscoveRx KINOMEscan

EIF2AK1 = molecular target: T32, EIF2AK1 (Homo sapiens, UniProt Q9BQI3); assay: KinomeScan; format: binding; details: 1uM
T32 construct: purchased DiscoveRx KINOMEscan

[6] = molecular target: T33, JAK2(JH1domain-catalytic) (Homo sapiens, UniProt O60674); assay: KinomeScan; format: binding; details: 1uM
T33 construct: JAK2(JH1domain-catalytic); purchased DiscoveRx KINOMEscan

PI3Kδ = PI3Kδ (Homo sapiens, UniProt O00329); assay: ADP-glo biochemical assay; details: purified enzyme, read-out: biochemical IC50 PI3K Delta
Experimental: as §1

MYLK4 = molecular target: T34, MYLK4 (Homo sapiens, UniProt Q86YV6); assay: KinomeScan; format: binding; details: 1uM
T34 construct: purchased DiscoveRx KINOMEscan

MAP4K2 = molecular target: T35, MAP4K2 (Homo sapiens, UniProt Q12851); assay: KinomeScan; format: binding; details: 1uM
T35 construct: purchased DiscoveRx KINOMEscan

MAP3K15 = molecular target: T36, MAP3K15 (Homo sapiens, UniProt Q6ZN16); assay: KinomeScan; format: binding; details: 1uM
T36 construct: purchased DiscoveRx KINOMEscan

CSNK2A2 = molecular target: T37, CSNK2A2 (Homo sapiens, UniProt P19784); assay: KinomeScan; format: binding; details: 1uM
T37 construct: purchased DiscoveRx KINOMEscan

CSNK1E = molecular target: T38, CSNK1E (Homo sapiens, UniProt P49674); assay: KinomeScan; format: binding; details: 1uM
T38 construct: purchased DiscoveRx KINOMEscan

[7] = molecular target: T39, RSK4(Kin.Dom.1-N-terminal) (Homo sapiens, UniProt Q9UK32); assay: KinomeScan; format: binding; details: 1uM
T39 construct: RSK4(Kin.Dom.1-N-terminal); purchased DiscoveRx KINOMEscan

p38-delta = molecular target: T40, p38-delta (Homo sapiens, UniProt O15264); assay: KinomeScan; format: binding; details: 1uM
T40 construct: purchased DiscoveRx KINOMEscan

ERK2 = molecular target: T41, ERK2 (Homo sapiens, UniProt P28482); assay: KinomeScan; format: binding; details: 1uM
T41 construct: purchased DiscoveRx KINOMEscan

T40 sequence (O15264 whole entry): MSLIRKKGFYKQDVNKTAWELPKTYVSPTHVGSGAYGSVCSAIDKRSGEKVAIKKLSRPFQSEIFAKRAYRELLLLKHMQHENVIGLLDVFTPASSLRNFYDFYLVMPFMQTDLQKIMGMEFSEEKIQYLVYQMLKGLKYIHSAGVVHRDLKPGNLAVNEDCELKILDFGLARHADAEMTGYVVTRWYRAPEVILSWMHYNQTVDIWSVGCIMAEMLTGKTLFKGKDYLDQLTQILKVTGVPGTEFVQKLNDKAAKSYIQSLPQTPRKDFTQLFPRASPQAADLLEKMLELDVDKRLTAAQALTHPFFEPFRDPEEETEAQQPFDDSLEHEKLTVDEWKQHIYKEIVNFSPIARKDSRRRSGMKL
T26 sequence (Q96BR1 whole entry): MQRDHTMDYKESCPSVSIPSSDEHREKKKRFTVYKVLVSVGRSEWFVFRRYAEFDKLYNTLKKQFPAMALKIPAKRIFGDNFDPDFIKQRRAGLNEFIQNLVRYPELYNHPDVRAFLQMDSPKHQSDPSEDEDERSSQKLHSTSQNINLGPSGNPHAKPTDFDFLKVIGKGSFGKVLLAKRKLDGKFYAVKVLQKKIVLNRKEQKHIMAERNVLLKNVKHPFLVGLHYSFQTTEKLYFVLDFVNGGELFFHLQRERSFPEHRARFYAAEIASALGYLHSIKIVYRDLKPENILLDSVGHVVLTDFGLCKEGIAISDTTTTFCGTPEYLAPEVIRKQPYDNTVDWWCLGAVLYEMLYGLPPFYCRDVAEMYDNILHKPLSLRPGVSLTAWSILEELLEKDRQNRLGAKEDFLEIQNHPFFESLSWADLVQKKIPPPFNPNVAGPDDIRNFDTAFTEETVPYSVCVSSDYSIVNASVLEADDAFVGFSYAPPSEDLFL
T22 sequence (O94768 whole entry): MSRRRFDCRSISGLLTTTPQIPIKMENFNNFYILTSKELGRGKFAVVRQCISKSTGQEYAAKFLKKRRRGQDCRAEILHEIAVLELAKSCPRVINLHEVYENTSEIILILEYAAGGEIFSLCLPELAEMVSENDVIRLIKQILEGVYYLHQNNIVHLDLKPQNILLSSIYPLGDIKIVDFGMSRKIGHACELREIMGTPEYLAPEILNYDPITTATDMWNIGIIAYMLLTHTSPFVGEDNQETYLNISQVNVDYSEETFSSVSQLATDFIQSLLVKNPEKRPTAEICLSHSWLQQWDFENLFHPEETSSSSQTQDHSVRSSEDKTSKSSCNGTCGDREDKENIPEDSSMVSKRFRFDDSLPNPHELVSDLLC
T7 sequence (Q15139 whole entry): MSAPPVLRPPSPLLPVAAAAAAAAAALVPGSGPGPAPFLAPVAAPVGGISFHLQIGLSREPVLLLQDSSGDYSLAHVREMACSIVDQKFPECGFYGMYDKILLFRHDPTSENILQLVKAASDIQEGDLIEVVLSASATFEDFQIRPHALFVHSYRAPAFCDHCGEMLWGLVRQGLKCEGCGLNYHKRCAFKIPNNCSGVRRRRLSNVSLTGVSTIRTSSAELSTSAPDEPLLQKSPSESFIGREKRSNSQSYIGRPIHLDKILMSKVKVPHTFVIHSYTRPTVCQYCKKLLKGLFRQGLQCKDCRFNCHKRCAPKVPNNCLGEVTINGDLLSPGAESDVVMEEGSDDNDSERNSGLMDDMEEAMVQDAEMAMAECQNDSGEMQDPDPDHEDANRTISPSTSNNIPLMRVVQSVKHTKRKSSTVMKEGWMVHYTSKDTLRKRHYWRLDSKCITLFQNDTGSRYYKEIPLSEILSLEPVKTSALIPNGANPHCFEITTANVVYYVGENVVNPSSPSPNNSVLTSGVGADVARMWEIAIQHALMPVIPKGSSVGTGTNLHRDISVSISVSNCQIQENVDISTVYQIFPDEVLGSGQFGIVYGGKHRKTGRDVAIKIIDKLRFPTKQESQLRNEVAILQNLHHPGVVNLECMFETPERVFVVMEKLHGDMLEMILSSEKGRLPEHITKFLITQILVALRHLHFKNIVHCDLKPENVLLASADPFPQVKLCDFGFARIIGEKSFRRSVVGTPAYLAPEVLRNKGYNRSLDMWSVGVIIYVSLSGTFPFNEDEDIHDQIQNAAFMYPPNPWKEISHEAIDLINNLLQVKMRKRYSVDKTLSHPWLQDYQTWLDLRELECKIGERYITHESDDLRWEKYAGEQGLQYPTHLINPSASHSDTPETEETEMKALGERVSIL
T15 sequence (Q9H3Y6 whole entry): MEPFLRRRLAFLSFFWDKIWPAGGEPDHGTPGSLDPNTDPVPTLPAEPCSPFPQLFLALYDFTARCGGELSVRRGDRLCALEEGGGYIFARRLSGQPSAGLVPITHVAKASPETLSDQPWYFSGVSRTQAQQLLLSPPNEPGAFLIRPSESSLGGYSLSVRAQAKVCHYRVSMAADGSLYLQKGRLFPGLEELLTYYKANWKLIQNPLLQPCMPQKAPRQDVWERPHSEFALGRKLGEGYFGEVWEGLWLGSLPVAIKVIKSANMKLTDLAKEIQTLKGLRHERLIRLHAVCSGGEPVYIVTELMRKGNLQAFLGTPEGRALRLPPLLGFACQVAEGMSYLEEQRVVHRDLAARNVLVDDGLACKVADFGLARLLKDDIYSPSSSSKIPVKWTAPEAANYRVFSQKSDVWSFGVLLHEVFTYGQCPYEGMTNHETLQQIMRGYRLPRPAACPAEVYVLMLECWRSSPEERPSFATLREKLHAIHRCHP
T1 sequence (O14965 whole entry): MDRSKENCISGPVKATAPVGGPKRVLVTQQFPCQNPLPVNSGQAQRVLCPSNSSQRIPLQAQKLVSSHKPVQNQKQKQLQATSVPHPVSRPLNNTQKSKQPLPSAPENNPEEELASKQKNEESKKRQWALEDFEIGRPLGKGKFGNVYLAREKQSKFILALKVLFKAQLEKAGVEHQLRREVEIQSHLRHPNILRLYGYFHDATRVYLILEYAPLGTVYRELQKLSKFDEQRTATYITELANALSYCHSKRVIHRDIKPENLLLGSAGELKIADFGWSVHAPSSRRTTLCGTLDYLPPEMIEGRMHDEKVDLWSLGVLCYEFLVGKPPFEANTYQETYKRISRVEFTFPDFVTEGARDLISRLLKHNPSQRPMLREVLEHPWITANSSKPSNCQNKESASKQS
T36 sequence (Q6ZN16 whole entry): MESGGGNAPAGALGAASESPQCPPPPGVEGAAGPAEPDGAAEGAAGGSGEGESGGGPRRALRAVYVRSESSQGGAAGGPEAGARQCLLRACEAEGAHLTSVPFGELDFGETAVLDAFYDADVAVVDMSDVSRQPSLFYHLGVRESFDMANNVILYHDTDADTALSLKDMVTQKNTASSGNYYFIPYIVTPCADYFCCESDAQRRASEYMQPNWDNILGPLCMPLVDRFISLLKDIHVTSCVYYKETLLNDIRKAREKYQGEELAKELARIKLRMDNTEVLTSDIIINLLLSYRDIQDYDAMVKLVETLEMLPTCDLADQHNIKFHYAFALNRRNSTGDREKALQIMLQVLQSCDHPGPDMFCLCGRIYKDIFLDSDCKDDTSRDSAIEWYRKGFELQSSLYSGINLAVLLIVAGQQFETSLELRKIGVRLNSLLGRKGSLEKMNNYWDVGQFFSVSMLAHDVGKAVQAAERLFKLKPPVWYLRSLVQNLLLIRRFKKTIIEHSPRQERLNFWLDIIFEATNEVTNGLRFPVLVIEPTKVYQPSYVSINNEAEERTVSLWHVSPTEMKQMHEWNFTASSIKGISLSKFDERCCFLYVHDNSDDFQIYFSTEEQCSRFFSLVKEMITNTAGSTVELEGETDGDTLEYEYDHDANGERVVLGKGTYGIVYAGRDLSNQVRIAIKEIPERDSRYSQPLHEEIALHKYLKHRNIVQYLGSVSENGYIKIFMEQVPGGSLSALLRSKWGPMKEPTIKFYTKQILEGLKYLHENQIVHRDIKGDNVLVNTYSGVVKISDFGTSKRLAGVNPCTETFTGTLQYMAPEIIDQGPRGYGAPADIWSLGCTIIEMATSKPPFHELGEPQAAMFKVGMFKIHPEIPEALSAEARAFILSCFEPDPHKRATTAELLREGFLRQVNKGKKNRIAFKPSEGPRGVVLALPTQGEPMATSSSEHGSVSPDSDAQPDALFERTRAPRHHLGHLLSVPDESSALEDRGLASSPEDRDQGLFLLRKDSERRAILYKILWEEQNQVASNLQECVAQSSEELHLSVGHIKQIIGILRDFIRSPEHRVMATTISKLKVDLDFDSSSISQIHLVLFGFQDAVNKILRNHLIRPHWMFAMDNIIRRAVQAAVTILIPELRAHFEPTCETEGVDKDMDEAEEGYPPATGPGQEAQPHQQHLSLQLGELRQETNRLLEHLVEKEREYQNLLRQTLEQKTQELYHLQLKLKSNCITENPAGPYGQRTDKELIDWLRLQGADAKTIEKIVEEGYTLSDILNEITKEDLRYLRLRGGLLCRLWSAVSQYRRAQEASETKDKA
T32 sequence (Q9BQI3 whole entry): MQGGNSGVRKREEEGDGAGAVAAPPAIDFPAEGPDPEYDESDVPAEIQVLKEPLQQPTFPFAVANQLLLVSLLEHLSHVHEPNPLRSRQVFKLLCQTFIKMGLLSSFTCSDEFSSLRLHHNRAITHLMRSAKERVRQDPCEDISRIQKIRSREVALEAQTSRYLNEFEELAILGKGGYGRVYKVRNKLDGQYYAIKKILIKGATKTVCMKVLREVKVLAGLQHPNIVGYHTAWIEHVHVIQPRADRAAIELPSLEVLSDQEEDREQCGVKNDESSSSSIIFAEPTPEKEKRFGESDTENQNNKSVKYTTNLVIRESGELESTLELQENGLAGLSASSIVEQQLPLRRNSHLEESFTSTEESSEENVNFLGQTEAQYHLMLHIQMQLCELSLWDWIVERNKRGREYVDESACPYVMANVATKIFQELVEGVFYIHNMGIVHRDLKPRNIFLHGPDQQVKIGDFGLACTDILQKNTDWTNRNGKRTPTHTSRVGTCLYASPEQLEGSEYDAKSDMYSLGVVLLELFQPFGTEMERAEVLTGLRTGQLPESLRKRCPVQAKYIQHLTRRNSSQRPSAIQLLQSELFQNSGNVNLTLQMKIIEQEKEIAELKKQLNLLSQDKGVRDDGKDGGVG

With `Cc1nc(NC(=O)[C@@H](N)C(C)C)sc1-c1cnc(Cl)c(NS(=O)(=O)c2ccccc2)c1` [PI3KD-IN-015] as the compound, how does the “KinomeScan AURKA” value (AURKA) read?
The value was 93.

And the “KinomeScan ERK3” value (ERK3)?
The value was 96.

And the “KinomeScan PAK7” value (PAK7)?
Its value is 89.

What about the “KinomeScan EGFR(L858R,T790M)” value (EGFR(L858R,T790M)) of the same compound?
The value was 100.

And the “KinomeScan ABL1(T315I)-phosphorylated” value [1]?
The value was 98.

What about the “KinomeScan TAOK1” value (TAOK1) of the same compound?
Its value is 96.

What about the “KinomeScan PRKD1” value (PRKD1) of the same compound?
Its value is 100.

What about the “KinomeScan JAK3(JH1domain-catalytic)” value [2] of the same compound?
The value was 98.

And the “KinomeScan BLK” value (BLK)?
The value was 97.

What about the “KinomeScan PKN1” value (PKN1) of the same compound?
Its value is 100.

And the “KinomeScan S6K1” value (S6K1)?
Its value is 100.

What about the “KinomeScan EPHB6” value (EPHB6) of the same compound?
The value was 100.

What about the “KinomeScan PKN2” value (PKN2) of the same compound?
The value was 100.

What about the IC50 (PIK3C2B) of the same compound?
Its IC50 is > 10 µM.

And the “KinomeScan SRMS” value (SRMS)?
The value was 90.

And the “KinomeScan HIPK1” value (HIPK1)?
The value was 96.

And the “KinomeScan MAP4K4” value (MAP4K4)?
Its value is 100.

And the “KinomeScan ABL1(F317L)-phosphorylated” value [3]?
Its value is 99.

What about the “KinomeScan DLK” value (DLK) of the same compound?
The value was 99.

What about the “KinomeScan MELK” value (MELK) of the same compound?
The value was 90.

And the “KinomeScan EGFR(G719S)” value (EGFR(G719S))?
Its value is 100.

And the “KinomeScan DRAK2” value (DRAK2)?
The value was 70.

What about the “KinomeScan EPHA6” value (EPHA6) of the same compound?
The value was 100.

What about the “KinomeScan p38-gamma” value (p38-gamma) of the same compound?
The value was 86.

What about the “KinomeScan EPHA7” value (EPHA7) of the same compound?
Its value is 100.

And the “KinomeScan SGK3” value (SGK3)?
The value was 91.

And the “KinomeScan CSNK1D” value (CSNK1D)?
Its value is 79.

And the “KinomeScan ABL1(H396P)-nonphosphorylated” value [4]?
The value was 100.

What about the “KinomeScan IRAK1” value (IRAK1) of the same compound?
The value was 60.

What about the “KinomeScan ABL1(Q252H)-phosphorylated” value [5] of the same compound?
The value was 90.

What about the “KinomeScan EPHA3” value (EPHA3) of the same compound?
Its value is 86.

And the “KinomeScan EIF2AK1” value (EIF2AK1)?
Its value is 100.

What about the “KinomeScan JAK2(JH1domain-catalytic)” value [6] of the same compound?
The value was 96.

What about the IC50 (PI3Kδ) of the same compound?
Its IC50 is 5 nM.

And the “KinomeScan MYLK4” value (MYLK4)?
The value was 80.

And the “KinomeScan MAP4K2” value (MAP4K2)?
The value was 91.

And the “KinomeScan MAP3K15” value (MAP3K15)?
Its value is 80.

And the “KinomeScan CSNK2A2” value (CSNK2A2)?
Its value is 39.

And the “KinomeScan CSNK1E” value (CSNK1E)?
Its value is 100.

And the “KinomeScan RSK4(Kin.Dom.1-N-terminal)” value [7]?
Its value is 100.

And the “KinomeScan p38-delta” value (p38-delta)?
The value was 98.

And the “KinomeScan ERK2” value (ERK2)?
Its value is 100.

From PMC5078040 (Oncotarget, 2016)
